Where a name gives a salt, the structure may show the parent alone.
Assays:
Histamine Receptor H3 = molecular target: T1, Histamine Receptor H3 (Homo sapiens, UniProt Q9Y5N1); test: Cyclic AMP assay for histamine receptor H3 antagonism activity; assay type: cell-based; settings: stable H3 cells; histamine plus 10 μM forskolin; 30 min at 30° C.; read-out: cAMP Kb
T1 construct: expressed in transfected cells
Protocol: Cyclic AMP Assay for Histamine Receptor H3 Antagonism Activity.
Stable H3 cells are maintained in tissue culture flask in DMEM with high glucose, 10% FBS, 1× pen/strep, 500 ug/ml GY18, until experiment. Culture media is removed and cells are washed twice with PBS w/ Ca++ and Mg++ plus 500 μM IBMX. Cells are then detached by tapping on the side of the flask and resuspend in the same buffer. Two thousand cells/well are incubated with […] histamine plus 10 μM forskolin plus various concentrations of compounds in a total volume of 30 μL in 96 well plates for 30 min at 30° C. Final test compound concentrations range from 10^-4M to 10-9.5M at full log dilutions. Cyclic AMP levels are measured using HitHunter cAMP kit from Discoverx, cat# 900041 according to manufacturer's instruction. Chemiluminescence signals are detected using Top Count (Packard). Cyclic AMP levels in control cells receiving 10 μM forskolin plus 100 nM histamine are considered 0%, and in cells receiving 10 uM forskolin plus 100 nM histamine plus 1 μM clobenpropit are considered 100%. Data are expressed as % control and analyzed using Prizm soft ware. The Kb values are calculated using the following equation, KB=EC50 or IC50/[1+(ligand/Kd)].

T1 sequence (Q9Y5N1 whole entry): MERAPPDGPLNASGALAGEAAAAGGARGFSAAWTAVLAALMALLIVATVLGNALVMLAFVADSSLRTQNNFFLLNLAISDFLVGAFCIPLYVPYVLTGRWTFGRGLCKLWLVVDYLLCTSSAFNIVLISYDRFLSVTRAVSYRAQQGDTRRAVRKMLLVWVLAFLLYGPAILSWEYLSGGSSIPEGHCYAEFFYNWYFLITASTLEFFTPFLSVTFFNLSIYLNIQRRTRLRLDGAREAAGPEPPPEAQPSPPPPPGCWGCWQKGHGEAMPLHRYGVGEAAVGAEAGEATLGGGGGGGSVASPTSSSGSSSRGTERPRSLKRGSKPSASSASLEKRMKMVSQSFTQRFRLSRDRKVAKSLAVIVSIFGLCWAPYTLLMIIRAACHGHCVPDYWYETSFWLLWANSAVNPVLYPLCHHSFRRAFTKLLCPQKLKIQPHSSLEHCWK

Compound | melting point [°C] | Kb (Histamine Receptor H3) [nM]
COc1cccc(Oc2ccc(C(=O)N3CC[C@H](N4CCCC4)C3)cc2)c1 (as salt: hydrochloride) [Example 36, (3′S)-1′-[4-(3-methoxyphenoxy)benzoyl]-1,3′-bipyrrolidine] | 82 to 84 | –
Cc1cc(Cl)ccc1Oc1ccc(C(=O)N2CC[C@H](N3CCCC3)C2)cc1 (as salt: hydrochloride) [Example 39, (3′S)-1′-[4-(4-chloro-2-methylphenoxy)benzoyl]-1,3′-bipyrrolidine] | 123 to 125 | –
Cc1ccc(Oc2ccc(C(=O)N3CC[C@H](N4CCCC4)C3)cc2)cc1 (as salt: hydrochloride) [Example 35, (3′S)-1′-[4-(4-methylphenoxy)benzoyl]-1,3′-bipyrrolidine] | 98 to 100 | –
Cc1ccc(Oc2ccc(C(=O)N3CC[C@H](N4CCCC4)C3)cc2)c(Cl)c1 (as salt: hydrochloride) [Example 40, (3′S)-1′-[4-(2-chloro-4-methylphenoxy)benzoyl]-1,3′-bipyrrolidine] | 124 to 126 | –
CN(C)C1CCN(C(=O)c2ccc(NC(=O)c3ccc4ccccc4n3)cc2)C1 (stereo not drawn) [Example 17, N-(4-{[3-(dimethylamino)pyrrolidin-1-yl]carbonyl}phenyl)quino-line-2-carboxamide] | – | 57
Cc1csc2c(Nc3ccc(C(=O)N4CCC(N(C)C)C4)cc3)ncnc12 (stereo not drawn) [Example 7, N-(4-{[3-(dimethylamino)pyrrolidin-1-yl]carbonyl}phenyl)-7-methylthieno[3,2-d]pyrimidin-4-amine] | – | 14

Source: patent US7842715B2, “N-benzoyl- and N-benzylpyrrolidin-3-ylamines as histamine-3 antagonists” (Wyeth LLC, priority 2006, dated 2010)
